# Reference: patent US20100160391A1, “Substituted Aminopyridines as Fluorescent Reporters for Amide Hydrolases” (priority 2006, published 2010)
# What was measured:
# [1] = biological target: T1, human FAAH, microsomes from FAAH cells (Homo sapiens, UniProt O00519); test: Specific activity, microsomes from FAAH cells; assay type: biochemical
# T1 construct: made in house; host or cells: Trichoplusia ni High Five cells infected with recombinant baculovirus Ac-hFAAH; microsomal fraction
# T1 sequence (O00519 1-579): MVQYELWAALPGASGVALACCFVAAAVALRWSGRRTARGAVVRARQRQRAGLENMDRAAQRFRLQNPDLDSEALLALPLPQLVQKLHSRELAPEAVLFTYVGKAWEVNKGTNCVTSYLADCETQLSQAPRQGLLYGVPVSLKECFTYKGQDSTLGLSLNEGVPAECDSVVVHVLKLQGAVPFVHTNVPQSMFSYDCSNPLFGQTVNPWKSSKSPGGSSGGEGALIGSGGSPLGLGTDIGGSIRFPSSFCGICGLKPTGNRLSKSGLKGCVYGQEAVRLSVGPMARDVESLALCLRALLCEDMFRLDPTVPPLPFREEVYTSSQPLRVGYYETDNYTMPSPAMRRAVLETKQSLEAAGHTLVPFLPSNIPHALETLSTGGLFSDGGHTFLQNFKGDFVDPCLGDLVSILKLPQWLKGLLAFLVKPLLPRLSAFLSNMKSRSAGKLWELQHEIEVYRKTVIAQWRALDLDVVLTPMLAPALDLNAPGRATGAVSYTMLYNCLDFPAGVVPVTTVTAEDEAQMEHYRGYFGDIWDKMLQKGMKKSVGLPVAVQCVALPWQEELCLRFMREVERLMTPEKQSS
# Protocol: Preparation of recombinant human FAAH. Transgenic expression of the human FAAH in a baculovirus system was performed by following the method described in Nishi et al., Arch. Biochem. Biophys., 445:115-123 (2006). The cDNA encoding human FAAH (GenBank Accession No. NM_001441) was amplified by PCR using a human liver cDNA library (Invitrogen; Carlsbad, Calif.) as a template. The primer pair was 5′-[…]-3′ and 5′-[…]-3′. BglII and EcoRI endonuclease sites (underlined) were incorporated just upstream of the start codon and downstream of the stop codon of the coding sequence of FAAH, respectively. The PCR products were cloned into a pCR2.1 vector (Invitrogen) and the nucleotide sequence was verified by DNA sequencing. The cDNA fragments were then excised and directionally ligated to the BglII and EcoRI sites of the baculovirus transfer vector pAcUW21 (Lopez-Ferber et al., Baculovirus transfer vectors, in “Baculovirus Expression Protocols,” Richardson (Ed.), pp 25-63, Humana Press, Totowa, N.J., 1995). Recombinant baculoviruses harboring the human FAAH gene, Ac-hFAAH, were generated by co-transfection of Spodoptera frugiperda-derived Sf21 cells with the recombinant transfer vector plasmid and Bsu36I-cleaved BacPAK6 viral DNA (Clontech Laboratories; Mountain View, Calif.) as described in O'Reilly et al., Baculovirus Expression Vectors: A Laboratory Manual, Oxford University Press, New York, 1992. Trichoplusia ni-derived High Five cells (1×10^6 cells/ml) were inoculated with a high titer of Ac-hFAAH. At 72 hours post-infection, the infected cells were harvested by centrifugation at 2,000×g for 20 min at 4° C. and suspended in 50 mM Tris-HCl (pH 8.0) containing 150 mM NaCl, 1 mM EDTA, 1 μM pepstatin, 100 μM leupeptin, and 0.1 mg/ml aprotinin. The cell suspension was then homogenized using a Polytron homogenizer and centrifuged at 10,000×g for 20 min at 4° C. The microsomal fraction was collected by ultracentrifugation of the supernatant at 100,000×g for 60 min at 4° C. The pellet was resuspended in 20 mM Tris-HCl (pH 8.0) containing 10% (w/v) glycerol and 1% (w/v) Triton-X 100 and stored at −80° C. until use.
# Comparison of the lowest detection limits of protein concentration of FAAH toward colorimetric and fluorescent substrates. In general, all assays were performed in 96-well styrene flat-bottom microtiter plates with a Spectra Max M2 spectrophotometer at 37° C. for […]. The total volume of each well was 201 μl consisting of 0.1 M sodium phosphate buffer (pH 8.0) (190 μl) containing 1% glycerol and 0.1% Triton-X 100, stock or diluted protein solution (10 μl), and the substrate solution (1 μl) in ethanol (final concentration 200 μM for 10, 11, 13 or 14) or in DMSO (final concentration 25 μM for 12, 15, or 16; 50 μM for 17). The lowest detection limits of microsomal fatty acid amide hydrolase (FAAH) by substrates were determined by the fact that the signal at 10 min after kinetic measurements are equal to or over three times the noise or basal line at 0 min. Colorimetric substrate (16) assays were performed in clear 96-well microtititer plates using an absorbance wavelength at 382 nm. The fluorescent substrates containing 5-amino-2-methoxypyridine (e.g., 10, 13) were measured at an excitation wavelength (302 nm), emission wavelength (396 nm), and auto cutoff wavelength (325 nm). Similarly, the fluorescent substrates containing 5-amino-2-methoxy-6-methylpyridine (e.g., 11, 14, and 17) were measured at an excitation wavelength (304 nm), emission wavelength (392 nm), and an auto cutoff wavelength of 325 nm. In addition, an excitation wavelength (366 nm), emission wavelength (496 nm), and auto cutoff wavelength (495 nm) were used for the substrates (e.g., 12 and 15) containing 7-amino-4-trifluoromethyl coumarin.
# Specific activity determination. The assays for specific activities were performed as described above for the sensitivity assay. […]
# [2] = Comparison of aqueous solubility of substrates (absorbance at 800 nm); assay type: physicochemical; details: 0.1 M phosphate buffer (pH 8.0), 1% ethanol, 37° C.
# Protocol: Comparison of aqueous solubility of substrates. The aqueous solubility of the aminopyridine derivatives (e.g., 13, 14) and the 7-aminocoumarin derivative (e.g., 15) was determined in clear 96-well styrene flat-bottom microtiter plates with a Spectra Max M2 spectrophotometer. Different concentrations of the substrates (13, 14 and 15; final concentration: 0.39, 0.78, 1.56, 3.13, 6.25, 12.5, 25, 50, 100, or 200 μM) in 200 μl 0.1 M sodium phosphate buffer (1% ethanol; pH 8.0) were used and the absorbance was recorded at a wavelength of 800 nm at 37° C. The measurements were performed in three replicates for each concentration.
smiles,measurement,setting,value
"CCCCCCCC(=O)Nc1ccc(OC)nc1 [Compound 13, N-(6-methoxypyridin-3-yl) octanamide]","enhancement of activity, microsomes from FAAH-expressing cells compared with High Five cells",[1],254 times
same,"preference of FAAH for substrate (13) over (14), specific activity",[1]; Table 4,10 times
same,"Specific activity, Microsomes from FAAH cells","[1]; pH 8.0, 37° C., NM = not measurable at the same protein concentration as other substrates",202.6 ± 3.3 nmol/min/mg protein
same,aqueous solubility compared with coumarin substrate (15),[2],much higher solubility
